The source made the active and inactive calls. The calls are words filed in the database; no cut-off is given here.
Experiments:
[1] = target: Serine/threonine-protein kinase WNK3 (Homo sapiens) (UniProt Q9BYP7); test: Inhibition of human WNK3 at 1 uM using RB-S6P as substrate in presence of 33P-ATP by ProQinase assay
[2] = target: Cyclin-dependent kinase 2/cyclin E1 (Homo sapiens) (UniProt P24864+P24941); test: Inhibition of human CDK2/CycE1 at 1 uM using RBER-CHKtide as substrate in presence of 33P-ATP by ProQinase assay; assay type: protein-complex assay
[3] = target: Serine/threonine-protein kinase Nek6 (Homo sapiens) (UniProt Q9HC98); test: Inhibition of recombinant human His6-tagged NEK6 (8 to 313 residues) expressed in baculovirus infected Sf21 cells assessed as remaining activity at 1 uM using FLAKSFGSPNRAYKK as substrate incubated for 30 mins in presence of [gamma-33P]ATP by filter binding method relative to control
[4] = target: Serine/threonine-protein kinase WNK1 (Homo sapiens) (UniProt Q9H4A3); test: Inhibition of human WNK1 at 1 uM using 3xChocktide-PKC as substrate in presence of 33P-ATP by ProQinase assay
[5] = target: Tyrosine-protein kinase Tec (Homo sapiens) (UniProt P42680); test: Inhibition of human TEC at 1 uM using polyEY as substrate in presence of 33P-ATP by ProQinase assay
[6] = target: Receptor tyrosine-protein kinase erbB-2 (Homo sapiens) (UniProt P04626); test: Inhibition of human ERBB2 at 1 uM using polyEY as substrate in presence of 33P-ATP by ProQinase assay
[7] = target: Casein kinase II subunit alpha' (Homo sapiens) (UniProt P19784); test: Inhibition of human CK2alpha2 at 1 uM using casein as substrate in presence of 33P-ATP by ProQinase assay
[8] = target: Phosphatidylinositol 4-kinase beta (Homo sapiens, UniProt Q9UBF8); test: Inhibition of human PI4KB using PI as substrate by ADP-Glo assay
U2OS = test: Inhibition of PI3K in human U2OS cells expressing GFP-PHAkt1 assessed as reduction in IGF-stimulated PtdIns(3,4,5)P3/PtdIns(3,4)P2 level […] at 1 uM pre incubated for 1 hr followed by IGF stimulation and measured after 15 mins by Alexa Fluor 488 staining based fluorescence microscopic analysis; assay type: subcellular; settings: time 1.25 hrs
[9] = target: Testis-specific serine/threonine-protein kinase 1 (Homo sapiens) (UniProt Q9BXA7); test: Inhibition of human TSSK1 at 1 uM using RBER-CHKtide as substrate in presence of 33P-ATP by ProQinase assay
[10] = target: LIM domain kinase 1 (Homo sapiens) (UniProt P53667); test: Inhibition of human LIMK1 at 1 uM using CFL2 as substrate in presence of 33P-ATP by ProQinase assay
[11] = target: STE20/SPS1-related proline-alanine-rich protein kinase (Homo sapiens) (UniProt Q9UEW8); test: Inhibition of human STK39 at 1 uM using RBER-CDC25tide as substrate in presence of 33P-ATP by ProQinase assay
[12] = target: Aurora kinase C (Homo sapiens) (UniProt Q9UQB9); test: Inhibition of human AuroraC at 1 uM using bio-4xCHKT as substrate in presence of 33P-ATP by ProQinase assay
[13] = target: Protein kinase C delta type (Homo sapiens) (UniProt Q05655); test: Inhibition of human PKCdelta at 1 uM using 3xChocktide-PKC as substrate in presence of 33P-ATP by ProQinase assay
[14] = target: Activin receptor type-2B (Homo sapiens) (UniProt Q13705); test: Inhibition of human ACVR2B at 1 uM using RB-CTF as substrate in presence of 33P-ATP by ProQinase assay
[15] = target: Tyrosine-protein kinase SYK (Homo sapiens) (UniProt P43405); test: Inhibition of human SYK (1 to 635 residues) at 1 uM using polyEY as substrate in presence of 33P-ATP by ProQinase assay
[16] = target: Insulin-like growth factor 1 receptor (Homo sapiens) (UniProt P08069); test: Inhibition of human IGF1R at 1 uM using polyEY as substrate in presence of 33P-ATP by ProQinase assay
[17] = target: TGF-beta receptor type-2 (Homo sapiens) (UniProt P37173); test: Inhibition of human TGFBR2 at 1 uM using RB-S6P as substrate in presence of 33P-ATP by ProQinase assay
[18] = target: PI3-kinase p110-alpha/p85-alpha (Homo sapiens) (UniProt P27986+P42336); test: Inhibition of recombinant human N-terminal His6-tagged PI3Kalpha (2 to 1068 residues)/p85A (1 to 724 residues) expressed in baculovirus expression system at 1 uM using diC8 PIP2 as substrate incubated for 80 mins by ADP-Glo assay
[19] = target: Mitogen-activated protein kinase kinase kinase kinase 3 (Homo sapiens) (UniProt Q8IVH8); test: Inhibition of recombinant human MAP4K3 (1 to 873 residues) expressed in baculovirus infected Sf21 cells assessed as remaining activity at 1 uM using MBP as substrate incubated for 30 mins in presence of [gamma-33P]ATP by filter binding method relative to control
[20] = target: Ephrin type-B receptor 2 (Homo sapiens) (UniProt P29323); test: Inhibition of human EPHB2 at 1 uM using poly(Ala,Glu,Lys,Tyr) as substrate in presence of 33P-ATP by ProQinase assay
[21] = target: Protein kinase C alpha type (Homo sapiens) (UniProt P17252); test: Inhibition of recombinant human N-terminal His6-tagged PKCalpha (1 to 672 residues) expressed in baculovirus infected Sf21 cells assessed as remaining activity at 1 uM using Histone H1 as substrate incubated for 30 mins in presence of [gamma-33P]ATP by filter binding method relative to control
[22] = target: Insulin-like growth factor 1 receptor (Homo sapiens) (UniProt P08069); test: (§1) Inhibition of recombinant human N-terminal His6-tagged IGF1R (954 to 1367 residues) expressed in baculovirus infected Sf21 cells assessed as remaining activity at 1 uM using KKKSPGEYVNIEFG as substrate incubated for 30 mins in presence of [gamma-33P]ATP by filter binding method relative to control
[23] = target: Homeodomain-interacting protein kinase 1 (Homo sapiens) (UniProt Q86Z02); test: Inhibition of human HIPK1 at 1 uM using RBER-CHKtide as substrate in presence of 33P-ATP by ProQinase assay
[24] = target: Fibroblast growth factor receptor 1 (Homo sapiens) (UniProt P11362); test: Inhibition of human FGFR1 at 1 uM using polyEy as substrate in presence of 33P-ATP by ProQinase assay
[25] = target: Ephrin type-A receptor 7 (Homo sapiens) (UniProt Q15375); test: Inhibition of human EPHA7 at 1 uM using polyEy as substrate in presence of 33P-ATP by ProQinase assay
[26] = target: Serine/threonine-protein kinase SIK3 (Homo sapiens) (UniProt Q9Y2K2); test: as §1, with “GST and HA-tagged SIK3 (2” for “His6-tagged IGF1R (954”, “1369” for “1367”, “ALNRTSSDSALHRRR” for “KKKSPGEYVNIEFG”
Sequence of Serine/threonine-protein kinase SIK3 (Homo sapiens) (Q9Y2K2 whole entry, looked up): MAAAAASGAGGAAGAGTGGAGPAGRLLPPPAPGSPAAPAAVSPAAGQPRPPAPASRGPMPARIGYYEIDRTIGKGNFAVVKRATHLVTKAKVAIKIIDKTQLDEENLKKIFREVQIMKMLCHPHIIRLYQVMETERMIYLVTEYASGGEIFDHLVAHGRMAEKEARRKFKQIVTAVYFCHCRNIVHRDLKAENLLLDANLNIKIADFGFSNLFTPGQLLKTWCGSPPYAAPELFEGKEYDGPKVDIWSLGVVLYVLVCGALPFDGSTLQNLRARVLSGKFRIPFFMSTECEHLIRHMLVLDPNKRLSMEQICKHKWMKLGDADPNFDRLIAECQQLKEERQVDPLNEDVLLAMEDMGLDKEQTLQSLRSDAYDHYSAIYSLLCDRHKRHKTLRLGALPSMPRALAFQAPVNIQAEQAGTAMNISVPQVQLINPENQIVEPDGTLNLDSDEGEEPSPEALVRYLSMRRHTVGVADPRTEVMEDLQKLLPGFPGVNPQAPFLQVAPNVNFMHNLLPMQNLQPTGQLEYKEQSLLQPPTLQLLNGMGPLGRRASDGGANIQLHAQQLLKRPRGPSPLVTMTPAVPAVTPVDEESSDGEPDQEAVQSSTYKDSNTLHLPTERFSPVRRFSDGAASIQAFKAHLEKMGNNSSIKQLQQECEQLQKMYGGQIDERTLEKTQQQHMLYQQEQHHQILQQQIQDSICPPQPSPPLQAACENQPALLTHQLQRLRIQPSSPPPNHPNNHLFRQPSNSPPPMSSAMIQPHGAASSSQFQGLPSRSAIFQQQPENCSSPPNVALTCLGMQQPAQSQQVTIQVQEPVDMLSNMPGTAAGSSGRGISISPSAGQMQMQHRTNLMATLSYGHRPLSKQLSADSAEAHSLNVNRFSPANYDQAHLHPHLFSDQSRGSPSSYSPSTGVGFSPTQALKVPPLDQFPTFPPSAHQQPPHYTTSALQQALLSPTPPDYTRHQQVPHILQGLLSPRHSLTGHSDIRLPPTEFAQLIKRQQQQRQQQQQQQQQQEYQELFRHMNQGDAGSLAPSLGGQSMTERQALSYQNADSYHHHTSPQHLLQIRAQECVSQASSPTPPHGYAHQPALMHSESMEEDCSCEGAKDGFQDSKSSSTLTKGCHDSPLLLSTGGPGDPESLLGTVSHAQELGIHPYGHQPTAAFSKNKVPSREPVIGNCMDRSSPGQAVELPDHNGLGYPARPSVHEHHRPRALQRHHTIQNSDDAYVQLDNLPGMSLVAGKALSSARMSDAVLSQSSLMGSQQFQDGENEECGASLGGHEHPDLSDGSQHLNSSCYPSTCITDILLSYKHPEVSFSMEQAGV

Sequence of Insulin-like growth factor 1 receptor (Homo sapiens) (P08069 31-736 limits assumed): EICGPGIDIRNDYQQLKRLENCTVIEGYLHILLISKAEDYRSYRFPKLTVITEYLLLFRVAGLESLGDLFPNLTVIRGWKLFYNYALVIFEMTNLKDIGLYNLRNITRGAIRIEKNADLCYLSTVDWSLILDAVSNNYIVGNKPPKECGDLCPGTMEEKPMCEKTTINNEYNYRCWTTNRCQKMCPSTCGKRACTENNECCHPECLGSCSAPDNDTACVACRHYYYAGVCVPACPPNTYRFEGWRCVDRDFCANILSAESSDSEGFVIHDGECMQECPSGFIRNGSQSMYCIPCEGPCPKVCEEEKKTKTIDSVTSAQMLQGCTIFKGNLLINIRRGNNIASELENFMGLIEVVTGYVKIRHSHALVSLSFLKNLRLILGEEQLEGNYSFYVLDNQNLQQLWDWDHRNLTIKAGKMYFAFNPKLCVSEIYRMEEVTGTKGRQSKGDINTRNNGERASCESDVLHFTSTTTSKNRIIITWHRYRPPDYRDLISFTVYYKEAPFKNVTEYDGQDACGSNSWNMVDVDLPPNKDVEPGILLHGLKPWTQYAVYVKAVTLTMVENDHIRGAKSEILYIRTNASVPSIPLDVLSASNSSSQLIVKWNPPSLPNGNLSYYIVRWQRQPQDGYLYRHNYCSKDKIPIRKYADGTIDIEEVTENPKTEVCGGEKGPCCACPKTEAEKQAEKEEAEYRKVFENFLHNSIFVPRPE
Sequence of Insulin-like growth factor 1 receptor (Homo sapiens) (P08069 741-1367 limits assumed): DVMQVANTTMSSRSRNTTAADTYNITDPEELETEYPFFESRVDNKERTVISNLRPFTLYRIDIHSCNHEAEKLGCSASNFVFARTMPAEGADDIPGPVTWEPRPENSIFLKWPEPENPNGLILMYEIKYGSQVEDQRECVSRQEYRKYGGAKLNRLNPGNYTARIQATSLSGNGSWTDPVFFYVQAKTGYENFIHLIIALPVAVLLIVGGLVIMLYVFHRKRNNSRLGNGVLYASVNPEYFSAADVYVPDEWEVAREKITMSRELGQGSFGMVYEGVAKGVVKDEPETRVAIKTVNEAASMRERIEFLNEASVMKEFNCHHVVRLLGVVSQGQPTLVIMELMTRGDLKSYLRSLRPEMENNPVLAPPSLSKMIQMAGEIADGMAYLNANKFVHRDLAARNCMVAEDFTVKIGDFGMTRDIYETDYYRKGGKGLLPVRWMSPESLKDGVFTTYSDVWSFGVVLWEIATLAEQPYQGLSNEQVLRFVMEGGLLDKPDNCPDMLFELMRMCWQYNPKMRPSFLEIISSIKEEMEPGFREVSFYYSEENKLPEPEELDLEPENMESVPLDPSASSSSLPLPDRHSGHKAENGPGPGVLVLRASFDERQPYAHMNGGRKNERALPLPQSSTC
Sequence of Phosphatidylinositol 4-kinase beta (Q9UBF8 whole entry): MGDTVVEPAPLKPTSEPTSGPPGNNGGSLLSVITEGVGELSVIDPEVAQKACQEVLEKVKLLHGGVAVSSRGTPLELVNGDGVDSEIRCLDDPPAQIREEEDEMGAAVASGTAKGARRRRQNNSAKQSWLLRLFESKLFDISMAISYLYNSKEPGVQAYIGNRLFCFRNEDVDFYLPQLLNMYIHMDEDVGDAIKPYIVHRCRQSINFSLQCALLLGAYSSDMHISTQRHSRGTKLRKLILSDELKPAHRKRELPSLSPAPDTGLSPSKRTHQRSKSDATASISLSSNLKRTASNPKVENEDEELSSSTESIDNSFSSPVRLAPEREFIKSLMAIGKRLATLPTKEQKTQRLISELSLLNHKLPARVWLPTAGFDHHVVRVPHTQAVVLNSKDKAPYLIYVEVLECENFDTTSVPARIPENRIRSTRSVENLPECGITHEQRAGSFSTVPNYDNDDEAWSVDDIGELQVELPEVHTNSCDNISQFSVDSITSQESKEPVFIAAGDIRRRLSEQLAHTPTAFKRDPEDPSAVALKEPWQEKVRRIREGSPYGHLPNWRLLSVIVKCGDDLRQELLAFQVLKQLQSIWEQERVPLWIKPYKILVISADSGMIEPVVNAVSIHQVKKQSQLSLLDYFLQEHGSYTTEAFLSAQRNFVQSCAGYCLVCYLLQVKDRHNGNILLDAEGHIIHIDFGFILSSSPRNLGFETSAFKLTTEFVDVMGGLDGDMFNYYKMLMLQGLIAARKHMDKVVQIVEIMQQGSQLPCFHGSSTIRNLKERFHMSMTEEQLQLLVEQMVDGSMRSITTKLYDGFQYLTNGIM
Sequence of Activin receptor type-2B (Homo sapiens) (Q13705 whole entry, the tested form may be a part): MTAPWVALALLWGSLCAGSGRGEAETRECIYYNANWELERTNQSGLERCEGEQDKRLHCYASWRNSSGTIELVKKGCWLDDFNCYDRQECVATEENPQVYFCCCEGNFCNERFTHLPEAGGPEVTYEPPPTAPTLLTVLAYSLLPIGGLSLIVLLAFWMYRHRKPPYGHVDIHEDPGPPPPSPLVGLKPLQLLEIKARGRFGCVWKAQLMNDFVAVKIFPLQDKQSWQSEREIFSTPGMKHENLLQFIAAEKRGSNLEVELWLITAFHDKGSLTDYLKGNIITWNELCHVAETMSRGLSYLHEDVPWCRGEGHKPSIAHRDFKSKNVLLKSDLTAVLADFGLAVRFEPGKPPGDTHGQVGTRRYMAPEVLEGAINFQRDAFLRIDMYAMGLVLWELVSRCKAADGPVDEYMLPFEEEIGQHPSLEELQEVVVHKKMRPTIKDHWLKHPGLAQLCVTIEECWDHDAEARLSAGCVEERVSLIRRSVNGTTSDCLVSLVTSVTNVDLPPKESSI
Sequence of Casein kinase II subunit alpha' (Homo sapiens) (P19784 whole entry, looked up): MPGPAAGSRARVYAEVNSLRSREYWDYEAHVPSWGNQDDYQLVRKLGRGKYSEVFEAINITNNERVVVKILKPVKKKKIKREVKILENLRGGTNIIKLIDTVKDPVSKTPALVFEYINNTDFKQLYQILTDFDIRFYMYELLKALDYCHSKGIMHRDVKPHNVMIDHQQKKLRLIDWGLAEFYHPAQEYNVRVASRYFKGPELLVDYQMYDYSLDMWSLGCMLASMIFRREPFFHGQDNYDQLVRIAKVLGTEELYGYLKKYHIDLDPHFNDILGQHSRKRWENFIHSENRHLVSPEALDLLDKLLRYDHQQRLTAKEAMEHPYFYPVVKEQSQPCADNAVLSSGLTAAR
Sequence of Serine/threonine-protein kinase Nek6 (Homo sapiens) (Q9HC98 whole entry, the tested form may be a part): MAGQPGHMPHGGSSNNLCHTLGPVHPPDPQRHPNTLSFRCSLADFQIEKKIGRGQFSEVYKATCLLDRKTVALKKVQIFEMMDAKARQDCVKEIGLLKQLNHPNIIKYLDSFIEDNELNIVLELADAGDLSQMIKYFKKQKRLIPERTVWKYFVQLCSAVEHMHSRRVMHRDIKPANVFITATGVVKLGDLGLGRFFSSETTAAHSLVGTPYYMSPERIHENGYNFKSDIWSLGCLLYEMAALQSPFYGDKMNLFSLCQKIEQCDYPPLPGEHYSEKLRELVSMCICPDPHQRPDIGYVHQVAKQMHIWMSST
Sequence of Testis-specific serine/threonine-protein kinase 1 (Homo sapiens) (Q9BXA7 whole entry, the tested form may be a part): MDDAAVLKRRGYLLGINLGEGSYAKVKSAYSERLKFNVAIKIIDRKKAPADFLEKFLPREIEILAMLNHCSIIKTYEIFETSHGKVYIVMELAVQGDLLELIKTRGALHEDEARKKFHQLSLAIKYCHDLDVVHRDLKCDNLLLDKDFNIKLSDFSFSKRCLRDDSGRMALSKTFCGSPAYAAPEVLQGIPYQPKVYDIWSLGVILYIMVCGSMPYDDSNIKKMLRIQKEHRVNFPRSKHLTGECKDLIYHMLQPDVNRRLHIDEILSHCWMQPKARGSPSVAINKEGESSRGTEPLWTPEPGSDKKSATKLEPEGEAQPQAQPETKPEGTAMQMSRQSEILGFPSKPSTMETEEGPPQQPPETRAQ

Question: What does the source list for CC(C)(O)CNc1ncc(-c2ccnc(Nc3ccnc(Cl)c3)n2)c(CC2CC2)n1?
Answer: inhibition [1]: inactive; inhibition [2]: inactive; Activity [3]: 98%; inhibition [4]: inactive; inhibition [5]: inactive; inhibition [6]: inactive; inhibition [7]: inactive; IC50 [8]: > 10 µM; inhibition (U2OS): inactive; inhibition [9]: inactive; inhibition [10]: inactive; inhibition [11]: inactive; inhibition [12]: inactive; inhibition [13]: inactive; inhibition [14]: inactive; inhibition [15]: inactive; inhibition [16]: inactive; inhibition [17]: inactive; inhibition [18]: inactive; Activity [19]: 117%; inhibition [20]: inactive; Activity [21]: 119%; Activity [22]: 101%; inhibition [23]: inactive; inhibition [24]: inactive; inhibition [25]: inactive; Activity [26]: 112%
